The record followed here is patent US10457684B2, “[1,2,3]triazolo[4,5-d]pyrimidine derivatives” (Hoffmann-La Roche Inc., priority 2016, dated 2019).

The structures appear in SMILES notation. pKi: −log10 of the molar value.

Experiment [1] concerns the target human CB2 receptor (Homo sapiens (Human), UniProt P34972). Put plainly: Radioligand binding assay, [3H]-CP-55,940, membranes of HEK cells expressing human CNR2. As to conditions: 2.6 nM [3H]-CP-55,940, HEK cell membranes, 1 h at 30° C. As for the experimental part: (§1) Radioligand Binding Assay
(§2) The affinity of the compounds of the invention for cannabinoid receptors was determined using recommended amounts of membrane preparations (PerkinElmer) of human embryonic kidney (HEK) cells expressing the human CNR1 or CNR2 receptors in conjunction with 1.5 or 2.6 nM [3H]-CP-55,940 (Perkin Elmer) as radioligand, respectively. Binding was performed in binding buffer (50 mM Tris, 5 mM MgCl2, 2.5 mM EDTA, and 0.5% (wt/vol) fatty acid free BSA, pH 7.4 for CB1 receptor and 50 mM Tris, 5 mM MgCl2, 2.5 mM EGTA, and 0.1% (wt/vol) fatty acid free BSA, pH 7.4 for CB2 receptor) in a total volume of 0.2 mL for 1 h at 30° C. shaking. The reaction was terminated by rapid filtration through microfiltration plates coated with 0.5% polyethylenimine (UniFilter GF/B filter plate; Packard). Bound radioactivity was analyzed for Ki using nonlinear regression analysis (Activity Base, ID Business Solution, Limited), with the Kd values for [^3H]CP55,940 determined from saturation experiments.
The compounds according to formula (I) have an activity in the above assay (Ki) particularly of 0.5 nM to 10 μM, more particularly of 0.5 nM to 3 μM and most particularly of 0.5 nM to 100 nM.

The target of experiment [2] is human CB1 receptor (Homo sapiens (Human), UniProt P21554). Put plainly: Radioligand binding assay, [3H]-CP-55,940, membranes of HEK cells expressing human CNR1. Conditions: 1.5 nM [3H]-CP-55,940, HEK cell membranes, 1 h at 30° C. As to the method:
as §1, §2

human CB2 receptor, sequence (P34972 whole entry): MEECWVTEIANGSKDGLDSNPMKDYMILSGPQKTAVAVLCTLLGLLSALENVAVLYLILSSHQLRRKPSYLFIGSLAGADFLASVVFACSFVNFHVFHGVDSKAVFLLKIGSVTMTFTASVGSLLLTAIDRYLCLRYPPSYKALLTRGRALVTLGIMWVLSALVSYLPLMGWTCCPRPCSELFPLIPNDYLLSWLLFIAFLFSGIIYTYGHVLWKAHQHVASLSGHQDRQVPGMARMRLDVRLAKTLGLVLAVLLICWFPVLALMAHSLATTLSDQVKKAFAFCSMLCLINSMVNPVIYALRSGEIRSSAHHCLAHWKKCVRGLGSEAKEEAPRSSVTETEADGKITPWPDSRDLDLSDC
human CB1 receptor, sequence (P21554 whole entry): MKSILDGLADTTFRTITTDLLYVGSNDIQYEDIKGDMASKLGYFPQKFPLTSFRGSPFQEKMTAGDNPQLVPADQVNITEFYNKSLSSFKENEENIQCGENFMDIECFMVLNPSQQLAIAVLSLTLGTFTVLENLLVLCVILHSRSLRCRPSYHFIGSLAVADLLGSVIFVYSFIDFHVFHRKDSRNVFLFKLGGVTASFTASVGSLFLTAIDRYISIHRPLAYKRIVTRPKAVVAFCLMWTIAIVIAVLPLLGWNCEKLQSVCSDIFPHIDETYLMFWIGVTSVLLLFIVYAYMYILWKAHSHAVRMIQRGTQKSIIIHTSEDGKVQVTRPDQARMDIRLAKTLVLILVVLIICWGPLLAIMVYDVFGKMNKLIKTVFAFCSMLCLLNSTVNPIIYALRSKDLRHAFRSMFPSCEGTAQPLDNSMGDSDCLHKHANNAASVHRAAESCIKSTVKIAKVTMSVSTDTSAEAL

For the compound `Cc1nonc1Cn1nnc2c(N3CCC4(C3)N=N4)nc(C(C)(C)C)nc21` [Example 1, 5-tert-Butyl-3-[(4-methyl-1,2,5-oxadiazol-3-yl)methyl]-7-(1,2,5-triazaspiro[2.4]hept-1-en-5-yl)-3H-[1,2,3]triazolo[4,5-d]pyrimidine], the pKi in experiment [1] was 7.79; in experiment [2], 5.53.
For `FC(F)(F)c1ccccc1Cn1nnc2c(N3CCC4(C3)N=N4)nc(C(F)(F)c3ccccc3)nc21` [Example 2, 5-[Difluoro(phenyl)methyl]-7-(1,2,5-triazaspiro[2.4]hept-1-en-5-yl)-3-{[2-(trifluoromethyl)phenyl]methyl}-3H-[1,2,3]triazolo[4,5-d]pyrimidine], in that order: 9.10 and 6.00.
Taken in the same sequence, the figures for `CC(C)(C)c1nc(N2CCC3(C2)N=N3)c2nnn(Cc3ccccc3Cl)c2n1` [Example 3, 5-tert-Butyl-3-[(2-chlorophenyl)methyl]-7-(1,2,5-triazaspiro[2.4]hept-1-en-5-yl)-3H-[1,2,3]triazolo[4,5-d]pyrimidine] were 8.48 and 6.49.
As for `CC(C)(C)c1nc(N2CCC(F)(F)C2)c2nnn(Cc3ccccc3C3(C(F)(F)F)N=N3)c2n1` [Example 4, 5-tert-Butyl-7-(3,3-difluoropyrrolidin-1-yl)-3-({2-[3-(trifluoromethyl)-3H-diaziren-3-yl]phenyl}methyl)-3H-[1,2,3]triazolo[4,5-d]pyrimidine], the pKi in experiment [1] is 8.38; in experiment [2], 6.31.
For `C#Cc1ccccc1Cn1nnc2c(N3CCC4(C3)N=N4)nc(C(C)(C)C)nc21` [Example 5, 5-tert-Butyl-3-[(2-ethynylphenyl)methyl]-7-(1,2,5-triazaspiro[2.4]hept-1-en-5-yl)-3H-[1,2,3]triazolo[4,5-d]pyrimidine], the pKi in experiment [1] was 8.25; in experiment [2] it was 6.88.
Turning to `FC(F)(c1ccccc1)c1nc(N2CCC3(C2)N=N3)c2nnn(Cc3ccccc3Cl)c2n1` [Example 6, 3-[(2-Chlorophenyl)methyl]-5-[difluoro(phenyl)methyl]-7-(1,2,5-triazaspiro[2.4]hept-1-en-5-yl)-3H-[1,2,3]triazolo[4,5-d]pyrimidine], the pKi in experiment [1] is 8.00; in experiment [2], 6.10.
Take `Cc1nonc1Cn1nnc2c(N3CCC4(C3)N=N4)nc(C(F)(F)c3ccccc3)nc21` [Example 7, 5-[Difluoro(phenyl)methyl]-3-[(4-methyl-1,2,5-oxadiazol-3-yl)methyl]-7-(1,2,5-triazaspiro[2.4]hept-1-en-5-yl)-3H-[1,2,3]triazolo[4,5-d]pyrimidine]: the pKi is 7.34 in experiment [1] and 5.27 in experiment [2].
Consider `CC(C)(C)c1nc(N2CCC(F)(F)C2)c2nnn(Cc3ccc(C4(C(F)(F)F)N=N4)cc3Cl)c2n1` [Example 8, 5-tert-Butyl-3-({2-chloro-4-[3-(trifluoromethyl)-3H-diaziren-3-yl]phenyl}methyl)-7-(3,3-difluoropyrrolidin-1-yl)-3H-[1,2,3]triazolo[4,5-d]pyrimidine], for which the pKi in experiment [1] is 7.25; in experiment [2] it was under 5.00.
On to `C#CCCC1(CCNC(=O)c2nonc2Cn2nnc3c(N4CCC(F)(F)C4)nc(C(C)(C)C)nc32)N=N1` [Example 9, 4-{[5-tert-Butyl-7-(3,3-difluoropyrrolidin-1-yl)-3H-[1,2,3]triazolo[4,5-d]pyrimidin-3-yl]methyl}-N-{2-[3-(but-3-yn-1-yl)-3H-diaziren-3-yl]ethyl}-1,2,5-oxadiazole-3-carboxamide], for which the pKi in experiment [1] was 5.94; in experiment [2], under 5.00.
With `C#CCCC1(CCNC(=O)c2nonc2Cn2nnc3c(N4CC[C@H](O)C4)nc(C(C)(C)C)nc32)N=N1` [Example 10, 4-({5-tert-Butyl-7-[(3S)-3-hydroxypyrrolidin-1-yl]-3H-[1,2,3]triazolo[4,5-d]pyrimidin-3-yl}methyl)-N-{2-[3-(but-3-yn-1-yl)-3H-diaziren-3-yl]ethyl}-1,2,5-oxadiazole-3-carboxamide], the pKi in experiment [1] is 6.70; in experiment [2] it was under 5.00.
Taken in the same sequence, the figures for `C#Cc1ccccc1Cn1nnc2c(N3CCC4(C3)N=N4)nc(C(F)(F)c3ccccc3)nc21` [Example 11, 5-[Difluoro(phenyl)methyl]-3-[(2-ethynylphenyl)methyl]-7-(1,2,6-triazaspiro[2.4]hept-1-en-6-yl)triazolo[4,5-d]pyrimidine] were 7.72 and 6.33.
`C#Cc1cccc(C2(C(F)(F)F)N=N2)c1Cn1nnc2c(N3CCC(F)(F)C3)nc(C(F)(F)c3ccccc3)nc21` [Example 12, 5-[Difluoro(phenyl)methyl]-7-(3,3-difluoropyrrolidin-1-yl)-3-[[2-ethynyl-6-[3-(trifluoromethyl)diazirin-3-yl]phenyl]methyl]triazolo[4,5-d]pyrimidine]: the figures for the pKi in experiment [1] and in experiment [2] were 7.51 and 5.47, respectively.
With `C#Cc1cccc(C2(C(F)(F)F)N=N2)c1Cn1nnc2c(N3CCC(F)(F)C3)nc(C(C)(C)C)nc21` [Example 13, 5-tert-Butyl-7-(3,3-difluoropyrrolidin-1-yl)-3-[[2-ethynyl-6-[3-(trifluoromethyl)diazirin-3-yl]phenyl]methyl]triazolo[4,5-d]pyrimidine], the pKi in experiment [1] is 8.05; in experiment [2] it was 6.83.
Taken in the same sequence, the figures for `C#Cc1cccc(C2(C(F)(F)F)N=N2)c1Cn1nnc2c(N3CC[C@H](O)C3)nc(C(C)(C)C)nc21` [Example 14, (3S)-1-[5-tert-Butyl-3-[[2-ethynyl-6-[3-(trifluoromethyl)diazirin-3-yl]phenyl]methyl]triazolo[4,5-d]pyrimidin-7-yl]pyrrolidin-3-ol] were 7.92 and under 5.00.
`C#Cc1cccc(C2(C(F)(F)F)N=N2)c1Cn1nnc2c(N3CC[C@H](O)C3)nc(C(F)(F)c3ccccc3)nc21` [Example 15, (3S)-1-[5-[Difluoro(phenyl)methyl]-3-[[2-ethynyl-6-[3-(trifluoromethyl)diazirin-3-yl]phenyl]methyl]triazolo[4,5-d]pyrimidin-7-yl]pyrrolidin-3-ol]: the negative logarithm of the Ki (pKi) in experiment [1] is 7.24; in experiment [2] it was under 5.00.
